Reference: article PMC6953623 (Bioorganic & medicinal chemistry letters, 2019)

Molecular target: AChE (Homo sapiens, UniProt P22303)
Format: biochemical
Settings: result in words

AChE, sequence (P22303 32-614): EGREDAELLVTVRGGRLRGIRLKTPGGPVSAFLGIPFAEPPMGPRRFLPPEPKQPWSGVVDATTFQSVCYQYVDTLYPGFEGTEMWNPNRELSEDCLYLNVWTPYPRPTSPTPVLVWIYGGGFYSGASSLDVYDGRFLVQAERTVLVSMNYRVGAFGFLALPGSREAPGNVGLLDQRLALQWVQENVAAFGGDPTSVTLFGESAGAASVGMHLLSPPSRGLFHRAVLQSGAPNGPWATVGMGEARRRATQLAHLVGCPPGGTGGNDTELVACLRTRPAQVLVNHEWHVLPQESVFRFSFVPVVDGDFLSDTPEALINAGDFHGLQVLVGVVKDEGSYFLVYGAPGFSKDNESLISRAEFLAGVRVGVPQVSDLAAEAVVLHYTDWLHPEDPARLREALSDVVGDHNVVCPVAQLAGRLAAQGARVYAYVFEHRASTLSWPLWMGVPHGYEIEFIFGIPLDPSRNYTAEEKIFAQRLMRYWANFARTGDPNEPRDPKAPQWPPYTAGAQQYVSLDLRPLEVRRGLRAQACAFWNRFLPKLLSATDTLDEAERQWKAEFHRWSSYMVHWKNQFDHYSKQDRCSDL

Cc1cc(CSCCc2nc3ccccc3[nH]2)c(O)c(CSCCc2nc3ccccc3[nH]2)c1 [NSC620023]
inhibition of AChE: no inhibition of AChE at all
